# Results taken from patent US8044057B2, “Methods for suppressing an immune response or treating a proliferative disorder” (The United States of America as represented by the …, priority 2003, dated 2011).
# Legend:
# [1] = system: mTOR; assay: Western blot of phospho-mTOR S2481 (autophosphorylation) in A549 cells; format: cell-based, human; settings: 0-100 μM LY303511, LPS/IFN-γ
# Protocol: Cells were reacted with 0-100 μM LY303511 for 1 hour before addition of L/I for 30 min and preparation of cell lysates. Samples (70 μg) of proteins were separated by SDS-PAGE and transferred to nitrocellulose membranes before immunodetection of phospho-p70 S6 kinase T389 (pS6K), phospho-Akt S473 (pAkt), total p70 S6 kinase (S6K), total Akt (Akt), phospho-mTOR S2481 (pmTOR), or total mTOR (mTOR) by Western blot. Positions of protein standards (kDa) are on the right. For the bar graph and digital images shown in FIG. 1D, band density measurements were also represented graphically. Integrated band densities for pmTOR were normalized to those of total mTOR. […]
# A549 cells were treated without or with 100 mcM LY303511, 200 ng/ml rapamycin, or 50 nM wortmannin in serum free media for 1 hour before addition of E. coli lipopolysaccharide (LPS), 1000 mcglml and interferon (IFN)-γ, 100 U/ml (LPS/IFN-γ or “L/I”). Cells were homogenized and the indicated proteins (see Table 1) were detected by Western blot. […]
# Measurement of protein phosphorylation: A549 cells were incubated in serum-free medium without or with inhibitors for 1 hour, as indicated, before incubation for 30 minutes with a mixture of LPS, 100 μg/ml (Sigma; St. Louis, Mo.) and IFN-γ, 100 U/ml (Roche; Nutley, N.J.). […] Integrated band densities were quantified using Scion Image beta 3b software.
# [2] = system: A549 cells; assay: BrDU incorporation (in situ ELISA) in A549 cells; format: cell-based, human; settings: 24 hours, 0-200 μM LY303511 without or with rapamycin 200 ng/ml
# [3] = system: A549 cells; assay: Propidium iodide flow cytometry cell cycle analysis in A549 cells; format: cell-based, human
# [4] = system: STAT1; assay: STAT1-driven luciferase reporter (GAS-luc) in A549 cells; format: cell-based, human; settings: 100 mcM LY303511 1 hour before LPS/IFN-γ for 6 hours
# Protocol: (§1) A549 cells were transiently transfected with a reporter vector expressing firefly luciferase driven by STAT1 (GAS-luc, Clontech), and incubated without or with 100 mcM LY303511, rapamycin, 200 ng/ml, or both, for 1 hour before addition of LPS/IFN-γ for 6 hours. STAT1 activity (luciferase activity) was measured in cell lysates (RLU). The data presented are triplicate samples ±SEM, and are representative of two independent experiments.
# as §1, with “presented in FIG. 8” for “presented”, “samples±SEM,” for “samples ±SEM,”
# [5] = system: PC-3 cells; assay: PC-3 prostate adenocarcinoma tumor growth in nude mice; format: in vivo, mouse
# Protocol: FIG. 6A-6B are bar graphs showing that LY303511 inhibits the growth of prostate adenocarcinoma cells (PC-3) cells in nude mice. LY303511, 10 mg/kg/d was administered intraperitoneally to attenuate PC-3 tumor growth in nude mice. The degree of growth inhibition was proportional to the duration of treatment with LY303511. […] FIG. 6C is a graph of a Kaplan-Mieir survival analysis. The analysis includes the premise that an event happens when a tumor reaches 300 mm^3. The y-axis depicts the probability that tumor size is less than 300 mm^3.
# The effect of LY303511 on tumor growth was assessed in vivo. Human prostate adenocarcinoma cells (PC-3 cells, ATCC No. CTL-1435) were culture in vitro 5 before harvesting and implantation. For each mouse, 1×10^6 cells in 20% Matrigel™ (matrix) were implanted by subcutaneous injection into the flank. Mice were subdivided into six groups of ten mice each. Treatment protocols were begun (Day 1) when tumors reached approximately 150 mm^3, and tumor volumes (=Caliper length×width^2/2) were measured for thirty days at the indicated time points. Data were expressed as the average tumor volume +/− SEM for each treatment group and time point. The data is shown both in FIG. 6A and 6B. (*p<0.05 by one way ANOVA for inter-group comparisons at each time point. FIG. 6C is a Kaplan-meier analysis, representing the probability that tumor volumes are less than 300 mm^3 at any given time point (p<0.001 by log-rank test for inter-group comparison).
smiles,measurement,setting,value
"O=c1cc(N2CCNCC2)oc2c(-c3ccccc3)cccc12 [LY303511, 2-(4-piperazinyl)-8-phenyl-4H-1-benzopyran-4-one]",autophosphorylation of mTOR (S2481),[1],inhibits autophosphorylation of mTOR in a concentration-dependent fashion
same,"BrDu uptake (DNA synthesis, proliferation)",[2],concentration-dependent reduction
same,proportion of cells in G2/M,"[3]; 100 μM LY303511, 24 hours",remained unchanged
same,fraction of cells in S phase,"[3]; 24 hours, 10 or 100 μM LY303511 without or with rapamycin 200 ng/ml",significantly reduced the fraction of cells in S phase
same,apoptosis or necrosis,[3]; flow cytometric analysis of propidium iodide-stained cells,did not induce apoptosis or necrosis
same,STAT1 activation (luciferase activity),[4],inhibited STAT1 activation
same,degree of growth inhibition versus duration of treatment,"[5]; 10 mg/kg daily for 5, 10 or 20 days",direct proportional to the duration of treatment
same,"tumor growth inhibition, 20 day course versus ten day course","[5]; 10 mg/kg daily, FIG. 6C",as effective at inhibiting tumor growth as a ten day course
same,PC-3 tumor growth,[5]; 10 mg/kg intraperitoneally daily,inhibited the growth of prostate adenocarcinoma cells
same,tumor burden,"[5]; LY303511 10 mg/kg daily, Doxorubicin 10 mg/kg once on Day 1",decrease tumor burden
